The source of these data is patent publication US11891369B2, “Compounds for binding proprotein convertase subtilisin/kexin type 9” (SRX Cardio, LLC, priority 2016, dated 2024).

Some results are limits rather than exact numbers.

The target in assay [1] is T1, PCSK9 (Homo sapiens, UniProt Q8NBP7).
T1 construct: host or cells: added to HepG2, HuH7, FL83B or shPCSK9 knockdown lines
Briefly: LDLR flow cytometric analysis (LDL-R assay). As to conditions: percentage recovery in the LDL-R assay at 20 uM concentration. It counts as cell-based. The text has this: Cells, such as HepG2, HuH7, FL83B, or a cell line transfected with a short-hairpin PCSK9 knockdown sequence (e.g., HepG2/shPCSK9, HuH7/shPCSK9) can be cultured following routine procedures, such as those described by Benjannet et al., “Effects of the prosegment and pH on the activity of PCSK9: evidence for additional processing events” J Biol Chem. 285(52): 40965-40978 (2010), which is hereby incorporated by reference in its entirety.
LDLR levels can be measured using flow cytometry or fluorescence activated cell sorting (FACS) using protocols adapted from Benjannet et al., “Effects of the prosegment and pH on the activity of PCSK9: evidence for additional processing events” J Biol Chem. 285(52): 40965-40978 (2010) and “Composition and Methods of Use of Small Molecules as Binding Ligands for the Modulation of Proprotein Convertase Subtilisin/Kexin Type 9 (PCSK9) Protein Activity” (WO2016029037), which are incorporated by reference in their entirety.
Cells, such as HepG2, HuH7, FL83B, or a cell line transfected with a short-hairpin PCSK9 knockdown sequence such as HepG2/shPCSK9, HuH7/shPCSK9, or FL83B/shPCSK9 are cultured in media composed of complete, high glucose DMEM (Invitrogen) with 10% fetal bovine serum (Life Technologies), supplemented with penicillin-streptomycin (Life Technologies). Cells are plated in a 24-well plate, at 125 k cells/well, and cultured at 37° C. for 12-24 h. Culture media is removed and replaced with fresh culture media or culture media plus a predetermined amount of recombinant PCSK9 (final 5 ug/ml). Wells evaluating test compounds are dosed with concentrations ranging from 0 nM to 100 uM.
Following an incubation period of 4-6 hours at 37° C., the media is removed and the cells are rinsed by adding 0.5 ml of complete D-PBS (i.e., Dulbecco's phosphate buffered saline (D-PBS, Life Technologies) supplemented with 0.5% bovine serum albumin (BSA, Sigma) and 1 g/L glucose (Sigma)). The wash media is carefully aspirated, and cells are released from the plate using 200 uls of TrypLE Express (Life Technologies) by incubating for 5-10 minutes at 37° C. The TyrpLE-Cell suspension is inactivated by adding 100 uls of Fetal Bovine Serum, transferred to a v-bottom plate, and centrifuged at 250× gravity for 5 minutes. Following centrifugation, the supernatant is aspirated and the cell pellet is resuspended in 100 uL of complete D-PBS, and centrifuged at 250× gravity for 5 minutes. Following centrifugation, the supernatant is aspirated and the cell pellet is resuspended in 100 uls of antibody staining solution (600 uls of anti-LDLr-PE in complete D-PBS) and incubated on ice, protected from light, for 30 minutes. The cells are then pelleted by centrifugation, resuspended in 100 uL of 4′,6-Diamidino-2-phenylindole (DAPI, Cayman Chemical) or 7-aminoactinomycin D (7AAD, Life Technologies) staining solution to measure cell viability
Cells are analyzed for both cell viability marker (dead cells) and LDLR in live cells using a flow cytometer per the manufacturer's operating manual. Cells incubated with small molecule compounds that are inhibitors of PCSK9 will be expected to show increased amounts of LDLR, relative to control (no compound) specimens, and cells incubated with small molecule compounds that are activators of PCSK9 will be expected to show decreased amounts of LDLR relative to control (no compound) specimens.

For assay [2], the target named is T1, PCSK9. The experiment in a line: Cellular DiI-LDL uptake analysis (LDL-uptake assay). It counts as cell-based. As to conditions: for DiI-LDL uptake (% of control) at 20 µM: read-out: LDL-uptake % of control; for remaining activity at 20 µM: percentage uptake of DiI-LDL over the control at 20 uM concentration. As for the experimental part:
Cells, such as HepG2, HuH7, FL83B, or a cell line transfected with a short-hairpin PCSK9 knockdown sequence such as HepG2/shPCSK9, HuH7/shPCSK9, or FL83B/shPCSK9 are plated and cultured at 37° C. for 12-24 h. Culture media is removed and replaced with fresh lipoprotein-depleted culture media supplemented with 5 ug/mL of DiI-LDL (Kalen Biomedical) or lipoprotein-depleted culture media supplemented with 5 ug/mL of DiI-LDL plus a predetermined concentration of recombinant PCSK9, for example a 10 nM final concentration of PCSK9. Lipoprotein-depleted culture media can be composed of DMEM (Invitrogen) with 10% lipoprotein-depleted fetal bovine serum (Kalen Biomedical) and supplemented with penicillin-streptomycin (Life Technologies). Cells are dosed with small molecule test compounds at doses ranging from 0 nM to 100 uM.
The lipoprotein-depleted media is removed and cells rinsed three times with phosphate buffered saline. A final volume of phosphate buffered saline is added back to the wells. The DiI fluorescence is measured with a plate reader using an exciting wavelength of 550 nm and the resulting emission at 590 nm is measured. The Hoechst stain fluorescence is measured with a plate reader using an exciting wavelength of 355 nm and the resulting emission at 460 nm is measured.
Cells are analyzed by for both Hoechst stain (DNA content) and DiI-LDL fluorescence.

T1 sequence (Q8NBP7 153-692): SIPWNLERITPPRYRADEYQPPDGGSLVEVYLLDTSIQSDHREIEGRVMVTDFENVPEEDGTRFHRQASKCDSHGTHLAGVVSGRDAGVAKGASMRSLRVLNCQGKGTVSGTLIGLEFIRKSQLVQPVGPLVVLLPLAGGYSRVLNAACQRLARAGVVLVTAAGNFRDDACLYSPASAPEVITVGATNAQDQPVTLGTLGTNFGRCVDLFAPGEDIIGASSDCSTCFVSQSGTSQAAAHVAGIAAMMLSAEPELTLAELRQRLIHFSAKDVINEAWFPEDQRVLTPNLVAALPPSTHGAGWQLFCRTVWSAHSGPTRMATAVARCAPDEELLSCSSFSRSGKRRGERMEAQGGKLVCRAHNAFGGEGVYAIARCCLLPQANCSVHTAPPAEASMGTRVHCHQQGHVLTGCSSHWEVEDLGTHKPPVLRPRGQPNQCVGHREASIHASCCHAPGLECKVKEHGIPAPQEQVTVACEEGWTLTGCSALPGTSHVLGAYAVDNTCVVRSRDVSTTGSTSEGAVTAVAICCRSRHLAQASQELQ

For `FC(F)(F)c1ccc(N2CCNCC2)c2ccccc12` [compound 1, 1-(4-(Trifluoromethyl)naphthalen-1-yl)piperazine], at PCSK9 [1], the “LDL-R % Recovered” value is on record as “+++ (>30% recovery)”. The DiI-LDL uptake (% of control) at 20 µM on PCSK9 [2] is above 150%.
For `c1ccc2c(N3CCNCC3)ccc(OC3CCNCC3)c2c1` [compound 4, 1-(4-(Piperidin-4-yloxy)naphthalen-1-yl)piperazine], the “LDL-R % Recovered” value on PCSK9 [1] was “+ (0-10% recovery)”. Moreover, the remaining activity – broadly, the signal under treatment as a percentage of the control signal – at 20 µM on PCSK9 [2] was above 150%.
The corresponding values for `c1ccc2c(N3CCNCC3)ccc(NC3CCNCC3)c2c1` [compound 5, N-(4-(Piperazin-1-yl)naphthalen-1-yl)piperidin-4-amine] are “++ (10-30% recovery)” and below 100%.
With `O=S(=O)(c1ccc(N2CCNCC2)c2ccccc12)C1CCNCC1` [compound 7, 1-(4-(Piperidin-4-ylsulfonyl)naphthalen-1-yl)piperazine], at PCSK9 [1], the “LDL-R % Recovered” value is listed as “+ (0-10% recovery)”. For the same molecule, on PCSK9 [2], the remaining activity at 20 µM was above 150%.
As to `O=C(c1ccc(N2CCNCC2)c2ccccc12)N1CCNCC1` [compound 8, Piperazin-1-yl(4-(piperazin-1-yl)naphthalen-1-yl)methanone], on PCSK9 [1], the “LDL-R % Recovered” value was “+ (0-10% recovery)”. Moreover, the remaining activity at 20 µM at PCSK9 [2] is above 150%.
In the case of `NC(=O)N1CCN(c2cccc3ccccc23)CC1` [compound 11, 4-(Naphthalen-1-yl)piperazine-1-carboxamide], the “LDL-R % Recovered” value at PCSK9 [1] is on record as “+ (0-10% recovery)”. Besides, the DiI-LDL uptake (% of control) at 20 µM at PCSK9 [2] was below 100%.
Turning to `O=S(=O)(c1ccc(C2CCNCC2)c2ccccc12)C1CCNCC1` [compound 23, 4-((4-(Piperidin-4-yl)naphthalen-1-yl)sulfonyl)piperidine], at PCSK9 [1], the “LDL-R % Recovered” value is given as “+ (0-10% recovery)”. The remaining activity at 20 µM at PCSK9 [2] was above 150%.
Taken in the same sequence, the figures for `Cc1ccc(C2CCNCC2)c2ccccc12` [compound 43, 4-(4-Methylnaphthalen-1-yl)piperidine] were “++ (10-30% recovery)” and above 150%.
Taken in the same sequence, the figures for `O=S(=O)(Nc1ccccc1)c1ccc(N2CCNCC2)c2ccccc12` [compound 73, N-phenyl-4-(piperazin-1-yl)naphthalene-1-sulfonamide] were “+ (0-10% recovery)” and 100 to 150%.
Take `c1ccc2c(N3CCNCC3)cccc2c1` [compound 107, 1-(naphthalen-1-yl)piperazine]: on PCSK9 [1], the “LDL-R % Recovered” value is on record as “++ (10-30% recovery)”. Moreover, on PCSK9 [2], the DiI-LDL uptake (% of control) at 20 µM is above 150%.
